The target of one assay is Tachykinin NK1 (Homo sapiens (Human), UniProt P25103). Kind of assay: Radioligand binding assay No. 255520. The settings on record: test substance 10 μM, read-out: Inhibitory rate (%), Tachykinin NK1.
For the next assay, the target named is Dopamine D4.2 (Homo sapiens (Human), UniProt P21917, DEL265-296). Kind of assay: Radioligand binding assay No. 219900. The settings on record: test substance 10 μM, read-out: Inhibitory rate (%), Dopamine D4.2.
For a further assay, the system named is PC-3. Kind of assay: In vitro cytological inhibitory activity (XTT). The assay is classed as cell-based. The settings on record: Homo sapiens, 72 hrs. Here is the method: PC-3: Human prostatic carcinoma cell line;
1. Preparation of agents and compounds:
• 1.1 Preparation of phosphoric acid buffering solution (PBS): 8 g NaCl, 0.2 g KCl, 1.44 g Na2HPO4 and 0.24 g KH2PO4 were weighed and added to 800 mL ultrapure water. The mixture was adjusted to pH=7.4, and ultrapure water was added to the metered volume of IL. Then the autoclaving was conducted for 20 mins. • 1.2 Preparation of XTT detection working solution: 100 mg (2,3-Bis-(2-methoxy-4-nitro-5-sulfophenyl)-2H-tetrazolium-5-carboxanilide); 2,3-bis(2-methoxy-4-nitro-5-sulfophenyl)-5-[(phenylamino)carbonyl]-2H-tetrazolium hydroxide (XTT) powder was weighed, and dissolved under protection from light 300 mL of phenol red-free and serum-free RPMI1640 culture, which had been warmed up to 50° C. The resulting mixture was filtered, packaged and used immediately or in one week. The complete process was conducted under protection from light. • 1.3 Preparation of the test compound • Preparation of the stock solution of the test compound: The test compound powder was dissolved in DMSO in a concentration of 10 mM. • Preparation of the gradiently diluted solution of the test compound: 10 mM of the stock solution of the test compound was successively and gradiently diluted with DMSO by 4 folds for 10 concentrations. […]
(In general: Tetrazolium dyes change colour on reduction, which living cells bring about.)

The structures appear in SMILES notation.

Tachykinin NK1, sequence (P25103 whole entry): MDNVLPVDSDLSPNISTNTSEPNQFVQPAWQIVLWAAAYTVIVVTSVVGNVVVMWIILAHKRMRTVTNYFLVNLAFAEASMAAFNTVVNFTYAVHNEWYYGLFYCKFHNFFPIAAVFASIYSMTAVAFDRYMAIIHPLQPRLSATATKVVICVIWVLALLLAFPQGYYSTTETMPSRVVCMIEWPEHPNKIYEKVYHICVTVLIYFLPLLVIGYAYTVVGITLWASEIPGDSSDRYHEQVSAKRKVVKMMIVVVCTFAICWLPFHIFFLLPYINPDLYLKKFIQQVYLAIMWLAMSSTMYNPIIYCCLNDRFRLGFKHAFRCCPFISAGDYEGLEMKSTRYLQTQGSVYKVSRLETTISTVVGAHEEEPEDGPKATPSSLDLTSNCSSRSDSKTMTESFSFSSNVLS
Dopamine D4.2, sequence (P21917 other isoform, or with tags, fused parts or gaps del 265-296): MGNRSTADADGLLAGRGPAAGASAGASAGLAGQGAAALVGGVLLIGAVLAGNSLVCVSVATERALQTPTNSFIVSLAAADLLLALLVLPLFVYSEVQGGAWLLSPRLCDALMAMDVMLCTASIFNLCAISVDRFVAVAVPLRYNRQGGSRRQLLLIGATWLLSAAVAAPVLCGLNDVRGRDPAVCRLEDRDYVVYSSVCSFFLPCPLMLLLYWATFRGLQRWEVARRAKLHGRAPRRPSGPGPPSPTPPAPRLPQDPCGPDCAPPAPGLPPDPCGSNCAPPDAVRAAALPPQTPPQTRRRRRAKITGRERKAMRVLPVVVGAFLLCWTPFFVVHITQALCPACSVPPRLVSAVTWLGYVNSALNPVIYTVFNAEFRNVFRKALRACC

For the molecule `Nc1ccc(-c2ccc3ncc4c(=O)[nH]c(=O)n(-c5cccc(C(F)(F)F)c5)c4c3n2)cn1` [Compound 5, 9-(6-aminopyridin-3-yl)-1-(3-(trifluoromethyl)phenyl)pyrimido[5,4-c][1,5]naphthyridine-2,4(1H,3H)-dione], the inhibition at 10 µM on Tachykinin NK1 amounted to 20%; at Dopamine D4.2 it was 12%.
In the assay on PC-3, `O=c1[nH]c(=O)n(-c2cccc(C(F)(F)F)c2)c2c1cnc1ccc(-c3cnc4[nH]ccc4c3)nc12` [Compound 30, 9-(1H-pyrrolo[2,3-b]pyridin-5-yl)-1-(3-(trifluoromethyl)phenyl)pyrimido[5,4-c][1,5]naphthyridine-2,4(1H,3H)-dione] had an IC50 of 25.6 nM.

In general, IC50 refers to the concentration at which inhibition is half-maximal. High values mean lower potency, low ones higher potency.

The values above are taken from patent publication US9365572B2, “PI3K and/or mTOR inhibitor” (XUANZHU PHARMA CO., LTD., priority 2012, dated 2016).
